Our source for the IC50 values is patent publication US11548888B2, “KRas G12C inhibitors” (Mirati Therapeutics, Inc., priority 2019, dated 2023).

T1 sequence (P01116 1-188 isoform P01116-2 G12C): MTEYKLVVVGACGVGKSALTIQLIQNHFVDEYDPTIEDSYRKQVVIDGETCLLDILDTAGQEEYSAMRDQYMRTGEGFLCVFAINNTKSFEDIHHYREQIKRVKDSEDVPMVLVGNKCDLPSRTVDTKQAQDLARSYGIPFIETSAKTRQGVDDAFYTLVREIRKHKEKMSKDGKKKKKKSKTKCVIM

This experiment addresses T1, KRas G12C (Homo sapiens, UniProt P01116, G12C).
T1 construct: NCI-H358 cells (ATCC CRL-5807) express KRas G12C
Nature of the experiment: Inhibition of KRas G12C-dependent cell growth: Phospho-ERK in NCI-H358 cells. In kind it is cell-based. As to conditions: NCI-H358 cells expressing KRas G12C; Phospho-ERK (Thr202/Tyr204) normalized to GAPDH; 3 hours compound; 4 parameter fit. The procedure, abridged:
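NCI-H358 cells (KRas G12C) exposed to compounds for 3 h, 0.5% DMSO final. Fixed cells immunostained for pERK(Thr202/Tyr204) and GAPDH with infrared secondary antibodies. pERK normalized to GAPDH, expressed as percent of DMSO control; IC50 from 4-parameter dose-response fit.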
The compound `C=CC(=O)N1CCN(c2ncnc3c(F)c(-c4c(N)c(Cl)cc(Cl)c4F)ncc23)C[C@@H]1CC#N` [Example 243] gave a concentration for half-maximal inhibition (IC50) of 1.2 µM.

`C=C(F)C(=O)N1CCN(c2nc(OC[C@@H]3CC4CCN3C4)nc3c(F)c(-c4cccc5ccc(F)c(Cl)c45)ncc23)C[C@@H]1CC#N` (stereo partly shown) [Example 244] had an IC50 of 0.088 µM. As to `C#Cc1cccc2cccc(-c3ncc4c(N5CC[C@@H]6[C@H]5CN6C(=O)C=C)ncnc4c3F)c12` [Example 245, 1-((1R,5R)-2-(7-(8-ethynylnaphthalen-1-yl)-8-fluoropyrido[4,3-d]pyrimidin-4-yl)-2,6-diazabicyclo[3.2.0]heptan-6-yl)prop-2-en-1-one], the IC50 stood at 4.04 µM.

Take `C=CC(=O)N1CCC12CN(c1ncnc3c(F)c(-c4cccc5ccc(F)c(Cl)c45)ncc13)C2` [Example 246, 1-(6-(7-(8-chloro-7-fluoronaphthalen-1-yl)-8-fluoropyrido[4,3-d]pyrimidin-4-yl)-1,6-diazaspiro[3.3]heptan-1-yl)prop-2-en-1-one]: the IC50 is 6.47 µM. Under `C#Cc1cccc2cccc(-c3ncc4c(N5C[C@@H]6[C@H]5CCN6C(=O)C=C)ncnc4c3F)c12` [Example 247, 1-((1R,5R)-6-(7-(8-ethynylnaphthalen-1-yl)-8-fluoropyrido[4,3-d]pyrimidin-4-yl)-2,6-diazabicyclo[3.2.0]heptan-2-yl)prop-2-en-1-one] stands 0.105 µM; under `C=CC(=O)N1CCN(c2ncnc3c(F)c(-c4cc(F)cc5ccccc45)ncc23)C[C@@H]1CC#N` [Example 249], 1.25 µM; under `C=CC(=O)N1CCN(c2ncnc3c(F)c(-c4c(C)c(Cl)cc5[nH]ncc45)ncc23)C[C@@H]1CC#N` [Example 250], 0.091 µM.

On to `C=CC(=O)N1CC[C@@H]2[C@H]1CN2c1ncnc2c(F)c(-c3cncc4cccc(Cl)c34)ncc12` [Example 251], for which the IC50 came to 0.799 µM. Under `C=CC(=O)N1CC[C@@H]2[C@H]1CN2c1nc(OC[C@@H]2[C@@H]3C[C@@H]3CN2C)nc2c(F)c(-c3cccc4ccc(F)c(Cl)c34)ncc12` [Example 252] stands 0.029 µM; under `C=CC(=O)N1CC[C@@H]2[C@H]1CN2c1nc(OC[C@@H]2[C@H]3C[C@H]3CN2C)nc2c(F)c(-c3cccc4ccc(F)c(Cl)c34)ncc12` [Example 253], 0.035 µM. Under `C=CC(=O)N1CC[C@@H]2[C@H]1CN2c1ncnc2cc(-c3cccc4ccc(F)c(Cl)c34)ncc12` [Example 254] stands 2.16 µM. On to `C=CC(=O)N1CCN(c2ncnc3c(F)c(-c4cc(Cl)cc5ccccc45)ncc23)CC1` [Example 255], for which the IC50 turned out to be 10 µM. Under `C=CC(=O)N1CCN(c2ncnc3c(F)c(-c4cc(C#N)cc5ccccc45)ncc23)CC1` [Example 256] stands 10 µM. In turn, `C=CC(=O)N1CCN(c2ncnc3c(F)c(-c4cccc5cc(Cl)ccc45)ncc23)CC1` [Example 257] displayed an IC50 of 10 µM. The same measure for `C=CC(=O)N1CCN(c2ncnc3c(F)c(-c4cccc5cc(F)ccc45)ncc23)CC1` [Example 258]: 10 µM; for `COC/C=C/C(=O)N1CC[C@@H]2[C@H]1CN2c1ncnc2c(F)c(-c3cccc4ccc(F)c(Cl)c34)ncc12` [Example 259]: 9 µM; for `C/C=C/C(=O)N1CC[C@@H]2[C@H]1CN2c1ncnc2c(F)c(-c3cccc4ccc(F)c(Cl)c34)ncc12` [Example 260]: 10 µM. The same measure for `O=C(/C=C/C(F)F)N1CC[C@@H]2[C@H]1CN2c1ncnc2c(F)c(-c3cccc4ccc(F)c(Cl)c34)ncc12` [Example 261]: 0.486 µM; for `C=CC(=O)N1CC[C@@H]2[C@H]1CN2c1nc(OC[C@@H]2CC(F)(F)CN2C)nc2c(F)c(-c3cccc4ccc(F)c(Cl)c34)ncc12` [Example 262]: 0.114 µM; for `O=C(/C=C/C(F)(F)F)N1CC[C@@H]2[C@H]1CN2c1ncnc2c(F)c(-c3cccc4ccc(F)c(Cl)c34)ncc12` [Example 263]: 1.14 µM. As for `C=CC(=O)N1CC[C@@H]2[C@H]1CN2c1nc(OC[C@@H]2C[C@@H](F)CN2C)nc2c(F)c(-c3cccc4ccc(F)c(Cl)c34)ncc12` [Example 264], the IC50 came to 0.02 µM. `C=CC(=O)N1CC[C@@H]2[C@H]1CN2c1nc(OC2COC2)nc2c(F)c(-c3cccc4ccc(F)c(Cl)c34)ncc12` [Example 265] yielded an IC50 of 1.49 µM. The same measure for `C=CC(=O)N1CC[C@@H]2[C@H]1CN2c1ncnc2c(F)c(-c3cccc4cc(OC)ccc34)ncc12` [Example 266]: 10 µM; for `C=CC(=O)N1CC[C@@H]2[C@H]1CN2c1nc(OC)nc2c(F)c(-c3cccc4ccc(F)c(Cl)c34)ncc12` [Example 267]: 0.33 µM. The same measure for `C=CC(=O)N1CC[C@@H]2[C@H]1CN2c1nc(OCC)nc2c(F)c(-c3cccc4ccc(F)c(Cl)c34)ncc12` [Example 268]: 1.13 µM; for `C=CC(=O)N1CC[C@@H]2[C@H]1CN2c1nc(N(C)C)nc2c(F)c(-c3cccc4ccc(F)c(Cl)c34)ncc12` [Example 269]: 4.49 µM; for `C=CC(=O)N1CC[C@@H]2[C@H]1CN2c1nc(OC(C)C)nc2c(F)c(-c3cccc4ccc(F)c(Cl)c34)ncc12` [Example 270]: 3.78 µM. Regarding `C=CC(=O)N1CC[C@@H]2[C@H]1CN2c1nc(NC)nc2c(F)c(-c3cccc4ccc(F)c(Cl)c34)ncc12` [Example 271], the IC50 came out at 1.07 µM.

`C=CC(=O)N1CC[C@@H]2[C@H]1CN2c1nc(OC2CC2)nc2c(F)c(-c3cccc4ccc(F)c(Cl)c34)ncc12` [Example 272]: the IC50 amounted to 1.47 µM. The same measure for `C=CC(=O)N1CC[C@@H]2[C@H]1CN2c1nc(N2CC(N(C)C)C2)nc2c(F)c(-c3cccc4ccc(F)c(Cl)c34)ncc12` [Example 273]: 0.016 µM.

`C=CC(=O)N1CC[C@@H]2[C@H]1CN2c1nc(N(C)CC)nc2c(F)c(-c3cccc4ccc(F)c(Cl)c34)ncc12` [Example 274]: 10 µM corresponded to half-maximal inhibition (IC50). Under `C=CC(=O)N1CC[C@@H]2[C@H]1CN2c1nc(N(CC)CC)nc2c(F)c(-c3cccc4ccc(F)c(Cl)c34)ncc12` [Example 275] stands 10 µM. The same measure for `C=CC(=O)N1CC[C@@H]2[C@H]1CN2c1ncnc2c(F)c(-c3cccc4sccc34)ncc12` [Example 276]: 6.61 µM; for `C=CC(=O)N1CC[C@@H]2[C@H]1CN2c1ncnc2c(F)c(-c3cccc(Cl)c3C3CC3)ncc12` [Example 277]: 0.553 µM. The same measure for `C=CC(=O)N1CC[C@@H]2[C@H]1CN2c1ncnc2c(F)c(-c3cccc4ccsc34)ncc12` [Example 278]: 10 µM.

Compound `C=CC(=O)N1CC[C@@H]2[C@H]1[C@@H](C)N2c1ncnc2c(F)c(-c3cccc4ccc(F)c(Cl)c34)ncc12` [Example 279] had an IC50 of 0.408 µM. Consider `C=CC(=O)N1CC[C@@H]2[C@H]1[C@H](C)N2c1ncnc2c(F)c(-c3cccc4ccc(F)c(Cl)c34)ncc12` [Example 280], for which 0.09 µM corresponded to half-maximal inhibition (IC50). The same measure for `C=CC(=O)N1CC[C@@H]2[C@H]1CN2c1ncnc2c(F)c(-c3c(O)ccc4ccccc34)ncc12` [Example 281]: 2.34 µM; for `C=CC(=O)N1CC[C@@H]2[C@H]1CN2c1nc(N)nc2c(F)c(-c3cccc4ccc(F)c(Cl)c34)ncc12` [Example 282]: 0.287 µM.

In turn, `C=CC(=O)N1CC[C@@H]2[C@H]1CN2c1ncnc2c(F)c(-c3cccc4cccc(C)c34)ncc12` [Example 283] had an IC50 of 2.43 µM. Under `C=CC(=O)N1CC[C@@H]2[C@H]1CN2c1ncnc2c(F)c(-c3cccc4cccc(Cl)c34)ncc12` [Example 284] stands 0.557 µM; under `C=CC(=O)N1CC[C@@H]2[C@H]1CN2c1ncnc2c(F)c(-c3cccc4ccc(F)c(C)c34)ncc12` [Example 285], 0.782 µM. Under `C=CC(=O)N1CC[C@@H]2[C@H]1CN2c1ncnc2c(F)c(-c3cc(O)cc4cccc(Cl)c34)ncc12` [Example 288, 1-((1R,5R)-6-(7-(8-chloro-3-hydroxynaphthalen-1-yl)-8-fluoropyrido[4,3-d]pyrimidin-4-yl)-2,6-diazabicyclo[3.2.0]heptan-2-yl)prop-2-en-1-one] stands 0.015 µM. For `C=CC(=O)N1CC[C@@H]2[C@H]1CN2c1nc(OC[C@@H]2CCCN2C)nc2c(F)c(-c3cc(O)cc4cccc(Cl)c34)ncc12` [Example 289, 1-((1R, 5R)-6-(7-(8-chloro-3-hydroxynaphthalen-1-yl)-8-fluoro-2-(((S)-1-methylpyrrolidin-2-yl)methoxy)pyrido[4,3-d]pyrimidin-4-yl)-2,6-diazabicyclo[3.2.0]heptan-2-yl)prop-2-en-1-one], inhibition was half-maximal at 0.04 µM (IC50). The same measure for `C#Cc1c(F)ccc2cccc(-c3ncc4c(N5C[C@@H]6[C@H]5CCN6C(=O)C=C)ncnc4c3F)c12` [Example 290, 1-((1R, 5R)-6-(7-(8-ethynyl-7-fluoronaphthalen-1-yl)-8-fluoropyrido[4,3-d]pyrimidin-4-yl)-2,6-diazabicyclo[3.2.0]heptan-2-yl)prop-2-en-1-one]: 0.03 µM; for `C#Cc1cccc2cc(O)cc(-c3ncc4c(N5C[C@@H]6[C@H]5CCN6C(=O)C=C)ncnc4c3F)c12` [Example 291, 1-((1R,5R)-6-(7-(8-ethynyl-3-hydroxynaphthalen-1-yl)-8-fluoropyrido[4,3-d]pyrimidin-4-yl)-2,6-diazabicyclo[3.2.0]heptan-2-yl)prop-2-en-1-one]: 0.002 µM.

As usually defined, the IC50 is the concentration that gives 50% inhibition. A high value points to a need for much substance.
